Data as given in BindingDB's records for doi:10.1021/np970367q (Seoul National University, 1998).

Experiment: Inhibition of bovine brain PI-PLCgamma1 at 125 ug/mL

`CCCCCC/C=C\CCCCCCCCCc1cccc(O)c1` [3-[10'(Z)-heptadecenyl]phenol] and `CCCCCCCCCCCCCc1cccc(O)c1` [3-tridecyl phenol] are within 1.5-fold of each other in IC50: 95 µM for the first, 88 µM for the second.

`CCCCCCCCCCCCCCCc1cccc(O)c1` [3-pentadecylphenol] and `CCCCCC/C=C\CCCCCCCCCc1cccc(O)c1C(=O)O` [6-[10'(Z)-heptade-cenyljsalicylic acid] are within 1.5-fold of each other in IC50: 92.6 µM for the first, 74 µM for the second.

`CCCCCC/C=C\CCCCCCCc1cccc(O)c1C(=O)O` [6-{8(Z)-pentadecenyl}salicylic acid] gave an IC50 of 76.3 µM.
